27 compounds from patent publication US12624044B2, “SMARCA degraders and uses thereof” (Kymera Therapeutics, Inc., priority 2019, dated 2026) can be followed below.

The target in the test is SMARCA2 (Homo sapiens, UniProt P51531). Put plainly: MSD SMARCA2 degradation in A549 cell line. The class given is cell-based. As to conditions: 24 h; for Dmax: A549, A549 cells; for DC50: A549 cells, read-out: SMARCA2 MSD A549 degradation 24 h: Average external-Abs DC50. As to the method:
Cells were seeded into 96-well plates (A549 cells: 2×10^4 cells/well/100 ul media) abd incubated overnight. The next day, 200 nl compound were added into the intermediate plate with Echo (Labcyte 550) from source plate containing a 3-fold serial dilution from top concentration of 1 mM. The culture medium was changed with 80 ul of fresh medium and 80 ul of 2× compound solution was added into the well to make a final concentration of 1000 nM, 333.3 nM, 111.1 nM, 37.04 nM, 12.35 nM, 4.115 nM, 1.372 nM, 0.457 nM, 0.152 nM and 0 nM (DMSO). The wells were mixed and then incubated for 24 hours. The media was aspirated from the cultures and 60 ul pre-chilled PIPA lysis buffer (Boston BioProducts BP-115D) with protease/phosphatase inhibitor (Roche 05892791001/Roche 04906837001) was added into the well to lyze the cells for 20 minutes at 4° C. The MSD plate (L15XA) was coated with 40 ul cell lysate and incubated at 4° C. overnight. The next day, the plate was washed three times with TBST (CST #9997S), 150 ul/well. The MSD plates was blocked with 150 ul blocking buffer per well and shaked for 1 hr at RT, 600 rpm. The blocking buffer was 3% Blocker A (MSD, R93BA-4) in TBST. The MSD plate was washed three times with 150 ul/well of TBST and 25 ul/well of detection antibody (Rabbit anti-SMARCA2/BRM antibody, 100 μg/ml, ab223735) was added at final concentration of 1 ug/ml diluted in 1% Blocking buffer and shaken for 1 hour at RT, 600 rpm. The MSD plate was washed three times with 150 ul/well of TBST and 25 ul/well of SULFO-TAG anti-rabbit antibody (MSD, R32AB-1) was added at final concentration of 1 ug/ml diluted in 1% Blocking buffer and shaken for 1 hour at RT, 600 rpm. The MSD plate was washed three times with 150 ul/well of TBST and 150 ul/well of 2×MSD reading buffer diluted from 4× (MSD, R92TC-2) with water was added. Lastly, the MSD instrument was read.
The letter codes for the percentage of SMARCA2 degradation after 24 hours (Dmax %) include: A (>90% degradation), B (>70-90% degradation), C (50-70% degradation), and D (<50% degradation).

Sequence of SMARCA2 (P51531 whole entry): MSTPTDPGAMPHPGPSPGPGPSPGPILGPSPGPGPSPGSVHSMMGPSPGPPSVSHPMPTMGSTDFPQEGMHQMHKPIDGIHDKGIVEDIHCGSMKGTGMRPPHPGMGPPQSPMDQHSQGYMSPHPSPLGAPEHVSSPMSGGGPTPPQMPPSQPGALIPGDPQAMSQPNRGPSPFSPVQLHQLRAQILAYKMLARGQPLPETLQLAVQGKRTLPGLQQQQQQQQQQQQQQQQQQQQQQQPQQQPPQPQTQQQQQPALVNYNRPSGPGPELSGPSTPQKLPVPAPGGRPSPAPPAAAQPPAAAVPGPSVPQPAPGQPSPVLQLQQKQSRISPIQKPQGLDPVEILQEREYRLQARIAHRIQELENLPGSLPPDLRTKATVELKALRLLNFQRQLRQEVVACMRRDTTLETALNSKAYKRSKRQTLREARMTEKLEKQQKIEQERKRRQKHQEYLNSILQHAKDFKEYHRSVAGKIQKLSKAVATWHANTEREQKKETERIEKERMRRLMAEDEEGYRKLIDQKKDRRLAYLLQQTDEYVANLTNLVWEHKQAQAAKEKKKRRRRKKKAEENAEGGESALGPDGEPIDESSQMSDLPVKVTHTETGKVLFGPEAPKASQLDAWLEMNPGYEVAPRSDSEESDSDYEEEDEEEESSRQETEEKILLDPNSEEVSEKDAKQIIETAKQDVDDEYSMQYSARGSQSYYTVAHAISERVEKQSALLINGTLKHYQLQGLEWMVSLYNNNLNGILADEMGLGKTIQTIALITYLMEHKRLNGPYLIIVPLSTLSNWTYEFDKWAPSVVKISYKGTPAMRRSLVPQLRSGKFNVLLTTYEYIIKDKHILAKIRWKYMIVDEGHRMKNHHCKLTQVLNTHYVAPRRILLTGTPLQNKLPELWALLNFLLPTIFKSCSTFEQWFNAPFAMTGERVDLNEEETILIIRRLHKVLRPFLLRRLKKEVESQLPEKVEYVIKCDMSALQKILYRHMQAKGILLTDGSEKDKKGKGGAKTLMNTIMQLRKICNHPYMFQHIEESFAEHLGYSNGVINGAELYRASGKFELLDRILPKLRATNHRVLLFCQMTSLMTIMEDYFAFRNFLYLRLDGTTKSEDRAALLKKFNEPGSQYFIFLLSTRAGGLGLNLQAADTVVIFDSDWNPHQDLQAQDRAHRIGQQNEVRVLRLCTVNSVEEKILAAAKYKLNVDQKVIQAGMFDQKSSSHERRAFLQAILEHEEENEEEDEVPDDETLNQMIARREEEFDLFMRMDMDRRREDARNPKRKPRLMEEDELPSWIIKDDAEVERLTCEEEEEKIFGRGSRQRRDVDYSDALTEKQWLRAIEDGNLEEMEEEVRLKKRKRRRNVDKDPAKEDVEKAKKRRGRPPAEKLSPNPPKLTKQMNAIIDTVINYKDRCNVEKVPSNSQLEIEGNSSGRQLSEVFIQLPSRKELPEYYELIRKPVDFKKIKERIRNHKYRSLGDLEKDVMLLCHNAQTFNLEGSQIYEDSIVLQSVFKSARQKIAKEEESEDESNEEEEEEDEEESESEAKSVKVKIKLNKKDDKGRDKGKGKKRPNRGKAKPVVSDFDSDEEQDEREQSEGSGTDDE

Usually Dmax stands for the greatest extent of degradation seen. A low value points to a partial loss of target. The DC50 is the concentration at which degradation of the target reaches its halfway point. For `Cc1ncsc1-c1ccc(CNC(=O)[C@@H]2C[C@@H](O)CN2C(=O)[C@@H](NC(=O)[C@H]2CC[C@@H](N(C)Cc3cnc(N4C5CCC4CN(c4cc(-c6ccccc6O)nnc4N)C5)nc3)CC2)C(C)(C)C)cc1` [I-371], the Dmax was more than 90% and the half-maximal degradation concentration (DC50) is 100 to 500 nM.

In the case of `Cc1ncsc1-c1ccc(CNC(=O)[C@@H]2C[C@@H](O)CN2C(=O)[C@@H](NC(=O)[C@H]2CC[C@H](N(C)Cc3cnc(N4C5CCC4CN(c4cc(-c6ccccc6O)nnc4N)C5)nc3)CC2)C(C)(C)C)cc1` [I-372], the greatest degradation seen (Dmax) lay within 50 to 70% and the half-maximal degradation concentration (DC50) lay in the range of 501 to 1000 nM.

Take `Cc1ncsc1-c1ccc(CNC(=O)[C@@H]2C[C@@H](O)CN2C(=O)[C@@H](NC(=O)[C@H]2CC[C@@H](CN3CCC(c4cnc(N5C6CCC5CN(c5cc(-c7ccccc7O)nnc5N)C6)nc4)CC3)CC2)C(C)(C)C)cc1` [I-373]: the Dmax is more than 90% and the half-maximal degradation concentration (DC50) is 100 to 500 nM.

On to `Cc1ncsc1-c1ccc(CNC(=O)[C@@H]2C[C@@H](O)CN2C(=O)[C@@H](NC(=O)[C@H]2C[C@@H](CN3CCC(c4cnc(N5C6CCC5CN(c5cc(-c7ccccc7O)nnc5N)C6)nc4)CC3)C2)C(C)(C)C)cc1` [I-374], for which the Dmax was 70 to 90% and the half-maximal degradation concentration (DC50) is 100 to 500 nM.

In the case of `Cc1ncsc1-c1ccc(CNC(=O)[C@@H]2C[C@@H](O)CN2C(=O)[C@@H](NC(=O)[C@H]2C[C@H](CN3CCC(c4cnc(N5C6CCC5CN(c5cc(-c7ccccc7O)nnc5N)C6)nc4)CC3)C2)C(C)(C)C)cc1` [I-376], the Dmax was in the range of 50 to 70% and the DC50 lay within 501 to 1000 nM.

Take `Cc1ncsc1-c1ccc(CNC(=O)[C@@H]2C[C@@H](O)CN2C(=O)[C@@H](NC(=O)[C@H]2CC[C@@H](CCCCCN3CCC(Cn4cc(-c5cc(-c6ccccc6O)nnc5N)cn4)CC3)CC2)C(C)(C)C)cc1` [I-377]: the greatest degradation seen (Dmax) lay within 70 to 90% and the 50% degradation concentration (DC50) is 100 to 500 nM.

For `Cc1ncsc1-c1ccc(CNC(=O)[C@@H]2C[C@@H](O)CN2C(=O)[C@@H](NC(=O)[C@H]2CC[C@@H](c3ccc(CN4CCC(Cn5cc(-c6cc(-c7ccccc7O)nnc6N)cn5)CC4)cc3)CC2)C(C)(C)C)cc1` [I-379], the Dmax was more than 90% and the DC50 lay within 100 to 500 nM.

For `Cc1ncsc1-c1ccc(CNC(=O)[C@@H]2C[C@@H](O)CN2C(=O)[C@@H](NC(=O)[C@H]2CC[C@H](c3ccc(CN4CCC(Cn5cc(-c6cc(-c7ccccc7O)nnc6N)cn5)CC4)cc3)CC2)C(C)(C)C)cc1` [I-380], the Dmax was more than 90% and the half-maximal degradation concentration (DC50) is 100 to 500 nM.

For the compound `Cc1ncsc1-c1ccc(CNC(=O)[C@@H]2C[C@@H](O)CN2C(=O)[C@@H](NC(=O)C2CC3(CCN(CCN4CCC(Cn5cc(-c6cc(-c7ccccc7O)nnc6N)cn5)CC4)CC3)C2)C(C)(C)C)cc1` [I-381], the Dmax is 50 to 70% and the 50% degradation concentration (DC50) was 501 to 1000 nM.

`Cc1ncsc1-c1ccc(CNC(=O)[C@@H]2C[C@@H](O)CN2C(=O)[C@@H](NC(=O)C[C@H]2C[C@H](N3CCC(c4cnc(N5C6CCC5CN(c5cc(-c7ccccc7O)nnc5N)C6)nc4)CC3)C2)C(C)(C)C)cc1` [I-391]: the greatest degradation seen (Dmax) is more than 90% and the DC50 was 100 to 500 nM.

With `Cc1ncsc1-c1ccc(CNC(=O)[C@@H]2C[C@@H](O)CN2C(=O)[C@@H](NC(=O)C[C@H]2C[C@@H](N3CCC(c4cnc(N5C6CCC5CN(c5cc(-c7ccccc7O)nnc5N)C6)nc4)CC3)C2)C(C)(C)C)cc1` [I-392], the Dmax was 70 to 90% and the half-maximal degradation concentration (DC50) lay within 100 to 500 nM.

With `Cc1ncsc1-c1ccc(CNC(=O)[C@@H]2C[C@@H](O)CN2C(=O)[C@@H](NC(=O)[C@H]2CC[C@H](N3CC(c4cnc(N5C6CCC5CN(c5cc(-c7ccccc7O)nnc5N)C6)nc4)C3)CC2)C(C)(C)C)cc1` [I-393], the greatest degradation seen (Dmax) is more than 90% and the DC50 is 100 to 500 nM.

`Cc1ncsc1-c1ccc(CNC(=O)[C@@H]2C[C@@H](O)CN2C(=O)[C@@H](NC(=O)C2CC3(CCN(Cc4cnc(N5C6CCC5CN(c5cc(-c7ccccc7O)nnc5N)C6)nc4)CC3)C2)C(C)(C)C)cc1` [I-394]: the Dmax is more than 90% and the DC50 fell in the range of 100 to 500 nM.

`Cc1ncsc1-c1ccc(CNC(=O)[C@@H]2C[C@@H](O)CN2C(=O)[C@@H](NC(=O)[C@H]2CC[C@H](C(=O)N(C)Cc3cnc(N4C5CCC4CN(c4cc(-c6ccccc6O)nnc4N)C5)nc3)CC2)C(C)(C)C)cc1` [I-396]: the Dmax fell in the range of 70 to 90% and the 50% degradation concentration (DC50) was 100 to 500 nM.

With `Cc1ncsc1-c1ccc(CNC(=O)[C@@H]2C[C@@H](O)CN2C(=O)[C@@H](NC(=O)[C@H]2CC[C@H](N3CCC(CN4CCC(Cn5cc(-c6cc(-c7ccccc7O)nnc6N)cn5)CC4)CC3)CC2)C(C)(C)C)cc1` [I-397], the maximal degradation (Dmax) was less than 50% and the DC50 was more than 1000 nM.

As to `Cc1ncsc1-c1ccc(CNC(=O)[C@@H]2C[C@@H](O)CN2C(=O)[C@@H](NC(=O)[C@H]2CC[C@H](CN3CCC(c4cnc(N5C6CCC5CN(c5cc(-c7ccccc7O)nnc5N)C6)nc4)CC3)CC2)C(C)(C)C)c(C(F)(F)F)c1` [I-398], the greatest degradation seen (Dmax) lay in the range of 50 to 70% and the 50% degradation concentration (DC50) fell in the range of 501 to 1000 nM.

For `Cc1ncsc1-c1ccc(CNC(=O)[C@@H]2C[C@@H](O)CN2C(=O)[C@@H](NC(=O)[C@H]2CC[C@H](N3CCC(N4CCC(n5cc(-c6cc(-c7ccccc7O)nnc6N)cn5)CC4)CC3)CC2)C(C)(C)C)cc1` [I-400, (2S,4R)-1-((S)-2-((1r,4S)-4-(4-(4-(3-amino-6-(2-hydroxyphenyl)pyridazin-4-yl)-1H-pyrazol-1-yl)-[1,4′-bipiperidin]-1′-yl)cyclohexanecarboxamido)-3,3-dimethylbutanoyl)-4-hydroxy-N-(4-(4-methylthiazol-5-yl)benzyl)pyrrolidine-2-carboxamide], the Dmax was in the range of 70 to 90% and the half-maximal degradation concentration (DC50) lay in the range of 501 to 1000 nM.

On to `Cc1ncsc1-c1ccc(CNC(=O)[C@@H]2C[C@@H](O)CN2C(=O)[C@@H](NC(=O)[C@@H]2CC3CCC2C[C@@H]3c2cnc(N3C4CCC3CN(c3cc(-c5ccccc5O)nnc3N)C4)nc2)C(C)(C)C)cc1` (stereo partly drawn) [I-410], for which the Dmax is more than 90% and the DC50 was 100 to 500 nM.

As for `Cc1ncsc1-c1ccc(CNC(=O)[C@@H]2C[C@@H](O)CN2C(=O)[C@@H](NC(=O)[C@H]2CC[C@@H](Cc3ccc(-c4cnc(N5C6CCC5CN(c5cc(-c7ccccc7O)nnc5N)C6)nc4)cc3)CC2)C(C)(C)C)cc1` [I-413], the Dmax fell in the range of 70 to 90% and the DC50 lay within 100 to 500 nM.

`Cc1ncsc1-c1ccc(CNC(=O)[C@@H]2C[C@@H](O)CN2C(=O)[C@@H](NC(=O)C2CC3(C2)CC(N2CCC(c4cnc(N5C6CCC5CN(c5cc(-c7ccccc7O)nnc5N)C6)nc4)CC2)C3)C(C)(C)C)cc1` (stereo partly drawn) [I-414]: the Dmax was more than 90% and the 50% degradation concentration (DC50) was 100 to 500 nM.

As to `Cc1ncsc1-c1ccc(CNC(=O)[C@@H]2C[C@@H](O)CN2C(=O)[C@@H](NC(=O)C2CC3(C2)CC(N(C)Cc2cnc(N4C5CCC4CN(c4cc(-c6ccccc6O)nnc4N)C5)nc2)C3)C(C)(C)C)cc1` (stereo partly drawn) [I-416], the greatest degradation seen (Dmax) is more than 90% and the half-maximal degradation concentration (DC50) is 100 to 500 nM.

As to `Cc1ncsc1-c1ccc(CNC(=O)[C@@H]2C[C@@H](O)CN2C(=O)[C@@H](NC(=O)[C@H]2CC3(C[C@H](CN(C)Cc4cnc(N5C6CCC5CN(c5cc(-c7ccccc7O)nnc5N)C6)nc4)C3)C2)C(C)(C)C)cc1` (stereo partly drawn) [I-417], the greatest degradation seen (Dmax) is more than 90% and the half-maximal degradation concentration (DC50) fell in the range of 100 to 500 nM.

In the case of `Cc1ncsc1-c1ccc(CNC(=O)[C@@H]2C[C@@H](O)CN2C(=O)[C@@H](NC(=O)C2CC=C(c3nccc(N4C5CCC4CN(c4cc(-c6ccccc6O)nnc4N)C5)n3)CC2)C(C)(C)C)cc1` (stereo partly drawn) [I-418], the Dmax was more than 90% and the DC50 was 100 to 500 nM.

Consider `Cc1ncsc1-c1ccc(CNC(=O)[C@@H]2C[C@@H](O)CN2C(=O)[C@@H](NC(=O)[C@H]2CC[C@@H](Cc3cnc(N4C5CCC4CN(c4cc(-c6ccccc6O)nnc4N)C5)nc3)CC2)C(C)(C)C)c(C(F)(F)F)c1` [I-421], for which the Dmax fell in the range of 70 to 90% and the 50% degradation concentration (DC50) fell in the range of 100 to 500 nM.

With `Cc1ncsc1-c1ccc(CNC(=O)[C@@H]2C[C@@H](O)CN2C(=O)[C@@H](NC(=O)[C@H]2CC[C@H](Cc3cnc(N4C5CCC4CN(c4cc(-c6ccccc6O)nnc4N)C5)nc3)CC2)C(C)(C)C)c(C(F)(F)F)c1` [I-422], the Dmax was more than 90% and the DC50 is 100 to 500 nM.

Consider `Cc1ncsc1-c1ccc(CNC(=O)[C@@H]2C[C@@H](O)CN2C(=O)[C@@H](NC(=O)[C@H]2CC3(C[C@H](CN4CCC(c5cnc(N6C7CCC6CN(c6cc(-c8ccccc8O)nnc6N)C7)nc5)CC4)C3)C2)C(C)(C)C)cc1` (stereo partly drawn) [I-426], for which the Dmax was more than 90% and the 50% degradation concentration (DC50) was in the range of 100 to 500 nM.

Regarding `Cc1ncsc1-c1ccc(CNC(=O)[C@@H]2C[C@@H](O)CN2C(=O)[C@@H](NC(=O)C23CCC(CN(C)Cc4cnc(N5C6CCC5CN(c5cc(-c7ccccc7O)nnc5N)C6)nc4)(CC2)CC3)C(C)(C)C)cc1` [I-429], the Dmax was 70 to 90% and the DC50 was in the range of 100 to 500 nM.
